Reference: PubChem BioAssay (NCI)
Several values for one entry are separate records, joined by “and”; a condition that tells them apart may be missing. Identical values can stand only once.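 Assay format: 96-well plates, 48-hour exposure. At the GI50, growth is halved. The concentration for full growth arrest is given as TGI.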

System: MDA-MB-468 breast
Assay: growth of human tumour cells (NCI), 48 h

With `NS(=O)(=O)N(c1cc(C(F)(F)F)cc(C(F)(F)F)c1)C1CCN(Cc2ccc(F)cc2)CC1` the GI50 was 1860 nM and the TGI was 4760 nM.

In the case of `c1ccc(-c2c(-c3ccccc3)[n+](Cc3ccc4ccccc4c3)c(-c3cccc4ccccc34)n2Cc2ccc3ccccc3c2)cc1`, the GI50 is reported as 47.3 nM and the TGI is reported as 281 nM.

Work on `COc1ccc(C2CC(c3cc(Cl)c(C)cc3O)=NN2c2ccc(S(N)(=O)=O)cc2)cc1OC` (stereo unspecified) yielded a GI50 of 2580 nM and a TGI of 9510 nM.

With `Nc1cc2c([nH]c[n+]2CC#CCCl)c(SCC#CCCl)n1` the GI50 was 734 nM and the TGI was 2400 nM.

`Cc1cc(C)c(-c2cc(O)c(-c3c(C)cc(C)cc3C)cc2O)c(C)c1` showed a GI50 of 1960 nM and a TGI of 8470 nM.

With `N#Cc1c(-c2ccccc2)cc(-c2ccccc2)n(CC(=O)NO)c1=O` the GI50 was 3480 nM and the TGI was 14500 nM.

Compound `CC(C)(C)c1ccc(C(=O)Nc2sc3c(c2C#N)CCC(=O)C3)cc1` has a GI50 of 1330 nM and a TGI of 5280 nM.

For `NCCOc1ncccc1/C=C1\c2ccccc2-c2ccc(F)cc21`, the GI50 was 1330 nM and the TGI was 2840 nM.

In the case of `COc1cc(-c2n[nH]nc2-c2ccc3c(c2)OCCO3)cc(OC)c1OC`, the GI50 is reported as 14.7 nM and the TGI is reported as 30500 nM.

With `C=C1C(=O)O[C@H]2[C@H]1CC/C(COC(=O)CCCCCCC(=O)OC/C1=C/CC[C@@]3(C)O[C@H]3[C@H]3OC(=O)C(=C)[C@@H]3CC1)=C\CC[C@@]1(C)O[C@@H]21` the GI50 was 2160 nM and the TGI was 5440 nM.

Work on `CCCCCCCCc1cc[n+](CC(=O)c2ccc(Br)cc2)cc1` yielded a GI50 of 1230 nM and a TGI of 2690 nM.

Compound `O=C1/C(=C/c2ccc(Cl)cc2)COc2ccc(O)cc21` has a GI50 of 2060 nM and a TGI of 4550 nM.

Compound `FC(F)(F)c1ccc(-c2cnc(Cl)nc2NC2CCCCCC2)cc1` has a GI50 of 55800 nM and a TGI of over 100000 nM.

For `COCC(=O)Oc1cc(-c2ccc(C)cc2C)c(OC(=O)COC)c(-c2ccc(C)cc2C)c1`, the GI50 was 2790 nM and the TGI was 14600 nM.

Work on `O=C(CCl)Nc1ccc2c(c1)C(=O)c1ccccc1C2=O` yielded a GI50 of 1760 nM and a TGI of 4080 nM.

`C=C(C)C(=O)Oc1ccc(N=Nc2ccc(C)cc2)ccc1=O` was tested, and the GI50 was 2800 nM and the TGI was 11500 nM.

For `COc1ccc(Nc2nccc(Nc3ccc4[nH]ncc4c3)n2)cc1`, the GI50 was 1700 nM and the TGI was 4550 nM.

`O=S1CCN(Cc2ccc(-c3ccc4ncnc(Nc5ccc(OCc6ccccc6)c(Cl)c5)c4c3)o2)CC1` showed a GI50 of 44.9 nM and a TGI of 376 nM.

`CC(C)c1cc(C(=O)N2Cc3ccc(CN4CCN(C)CC4)cc3C2)c(O)cc1O` was tested, and the GI50 was 40.4 nM and 58.8 nM and the TGI was 3720 nM and 378 nM.

Work on `COC1=CC(c2ccc[nH]2)=N/C1=C\c1[nH]c(C)c(C(=O)CCCCC(=O)NCc2ccccc2)c1C` yielded a GI50 of 2600 nM and a TGI of 7850 nM.

Compound `CC(=O)c1nc2ccccc2n1CCN1CCN(C)CC1` has a GI50 of 1910 nM and a TGI of over 22300 nM.

`Cc1cc(-c2ncc(-c3cccnc3)cc2/C=C/c2ccccc2)cnc1-c1cccnc1` gave a GI50 of over 20500 nM and a TGI of over 100000 nM.

For `O=C(NCCCCNC(=O)OCc1ccc2c(Cl)cc(Cl)c(O)c2n1)OCc1ccc2c(Cl)cc(Cl)c(O)c2n1`, the GI50 was 532 nM and the TGI was over 100000 nM.

`CCN1CCC(Oc2c(C#N)ncc3[nH]c4ncccc4c23)CC1` gave a GI50 of 16000 nM and a TGI of 33300 nM.

`COc1ccc(/C=C/c2nnc(/C=C/c3ccc(OC)c(OC)c3)o2)cc1OC` showed a GI50 of 2880 nM and a TGI of 27500 nM.

For `Clc1ccc(CCC(Cn2ccnc2)Sc2c(Cl)cccc2Cl)cc1` (stereo unspecified), the GI50 was 2130 nM and the TGI was 7490 nM.

In the case of `COc1cc(/C=N/Nc2ncnc3[nH]ncc23)ccc1O`, the GI50 is reported as 9900 nM and the TGI is reported as over 25000 nM.

Compound `Cc1ccc(C(=O)Nc2ccc(CNCCN3CCNCC3)c(C(F)(F)F)c2)cc1C#Cc1cnc2cccnn12` has a GI50 of 1650 nM and a TGI of 3300 nM.

Compound `COc1cc(C(=O)/C=C/c2ccc(OCCCCCC[P+](c3ccccc3)(c3ccccc3)c3ccccc3)cc2)cc(OC)c1OC` has a GI50 of 242 nM and a TGI of 705 nM.

For `COc1ccc2nc(NNC(=O)c3cnccn3)c3cccn3c2c1`, the GI50 was 287 nM and the TGI was 1960 nM.

Work on `CCCCCCCCc1ccc(OCCOCC[N+](C)(C)CC)cc1` (tested in a mixture with another compound) yielded a GI50 of 430 nM and a TGI of 2320 nM.

In the case of `Cn1cc(-c2nc3c(F)cc4[nH]ncc4c3c3c2CCCC3)c(C(F)(F)F)n1`, the GI50 is reported as 6440 nM and the TGI is reported as 33100 nM.

Work on `COc1cc(-c2ccc3ncnc(NCc4ccccc4)c3c2)cnc1OC` yielded a GI50 of 1710 nM and a TGI of 4960 nM.

`CCCCNCC(O)c1cc2c(Cl)cc(Cl)cc2c2cc(C(F)(F)F)ccc12` (stereo unspecified) gave a GI50 of 1590 nM and a TGI of 3030 nM.

Work on `NC(N)=Nc1ccc(Oc2cccc(NC(N)=Nc3ccc(Cl)c(C(F)(F)F)c3)c2)cn1` yielded a GI50 of 1380 nM and a TGI of 3130 nM.

In the case of `O=C(CNc1nc(-c2cccc([N+](=O)[O-])c2)cs1)Nc1cccc([N+](=O)[O-])c1`, the GI50 is reported as 1950 nM and the TGI is reported as 4920 nM.

`CCN(Cc1ccncc1)c1ccc(CO)c(Cl)c1` showed a GI50 of 35.4 nM and a TGI of 161 nM.

`Cc1cc2c([nH]1)CSc1cc(S(=O)(=O)c3ccccc3)c(=O)[nH]c1-2` gave a GI50 of 4530 nM and a TGI of over 26100 nM.

In the case of `O=C1Nc2ccccc2/C1=C/C(=N/c1nnc(-c2ccccc2)s1)c1ccccc1`, the GI50 is reported as 2710 nM and the TGI is reported as 8100 nM.

`CCCC(c1nnnn1C1CCCCC1)N1CCN(C(=O)c2ccco2)CC1` (stereo unspecified) showed a GI50 of over 100000 nM and a TGI of over 100000 nM.

`O=S1CCN(Cc2ccc(-c3ccc4ncnc(Nc5ccc(OCc6cccc(F)c6)c(Cl)c5)c4c3)o2)CC1` gave a GI50 of 5.68 nM and a TGI of 46.6 nM.

Compound `COc1ccc(/C=C(\C#N)c2ccc(OC)cc2)cc1` has a GI50 of 1610 nM and a TGI of 35000 nM.

`Cn1ncc2c(Sc3ccc(Cl)cc3)ncnc21` gave a GI50 of 20700 nM and a TGI of over 100000 nM.
